The values below come from US20230072421A1, “TARGETED RADIOPHARMACEUTICALS FOR THE DIAGNOSIS AND TREATMENT OF PROSTATE CANCER” (Bayer AS, priority 2019, published 2023).

The test system of one experiment is C4-2 cells. The experiment in a line: Cell proliferation assay (CellTiter-Glo, 5-day exposure), C4-2. In kind it is cell-based. The following applies: C4-2, 1000 cells/well, Th-227 labelled at 375 kBq/nmol, mean of 1 to 6 experiments. In short, it runs like this:
(§1)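 Seeding was 4000 cells/well for VCaP and 1000 cells/well for 22Rv1, C4-2 and LNCaP, followed by overnight culture at 37° C and 5% CO2. Cells were exposed to Thorium-227-labeled PSMA ligands for 5 days, and viability was measured by CellTiter-Glo luminescence both at treatment start and at the end.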
(In general: In ATP-based viability assays light output follows the ATP content of the culture.)

In a further experiment the test system is LNCaP cells. The experiment in a line: Cell proliferation assay (CellTiter-Glo, 5-day exposure), LNCaP. In kind it is cell-based, human. The following applies: LNCaP, 1000 cells/well; Th-227 labelled at 375 kBq/nmol; 5-day exposure; mean of 1 to 6 experiments. The method, then: Inhibition of cell proliferation of Thorium-227 labeled PMSA SMOL ligands was tested different prostate cancer cell lines, namely 22Rv1, VCaP, C4-2 (all from ATCC, Manassas, Va., USA) and LNCaP (DMSZ, Braunschweig). Cells were seeded using the following conditions in 384 well plates (Corning) in 30 μl of growth media at 4000 cells/well for VCaP cells and 1000 cells/well for 22Rv1, C4-2 and LNCaP cells.
Cells were cultivated an incubator at 37° C. and 5% C02 over night. On the following days cells were treated in triplicates with serial dilutions of PSMA-SMOLs labeled with Th-227 at a specific activity of 375 kBq/nmol (RCP>70% as assessed by iTLC analysis; compounds where RCP was between 50-70% in individual experiments are marked with an * in the table) using a D300e Digital Dispenser (Tecan). In sister plates cell viability at treatment start (d=0) was determined using CellTiter-Glo® assay (CTG, Promega, Madison, Wis., USA), by adding 30 μl per well CTG solution, incubation for 10 min and reading of Luminescence in a PheraStarFSX instrument (BMG Labtech). After a 5-day exposure in the presenced of test compounds, cell viability of treated or untreated control cells was determined again using CellTiter-Glo® assay (Promega, Madison, Wis., USA). […] The DRC software is a Biobook Spreadsheet that was developed by Bayer AG and Bayer Business Services on the IDBS E-Workbook Suite platform (IDBS: ID Business Solutions Ltd., Guildford, UK).

For a further experiment, the system named is VCaP cells. The experiment in a line: Cell proliferation assay (CellTiter-Glo, 5-day exposure), VCaP. It is filed as cell-based. The following applies: 4000 cells/well, Th-227 labelled at 375 kBq/nmol, mean of 1 to 6 experiments. The method in brief: as §1

As to `CNc1cc(C[C@@H](NC(=O)[C@H]2CC[C@H](CNC(=O)CN3CCN4CCN5CCN(CC3)CC(=O)[O][227Th]([O]C(=O)C4)[O]C(=O)C5)CC2)C(=O)NCCCC[C@H](NC(=O)N[C@@H](CCC(=O)O)C(=O)O)C(=O)O)cc2ccccc12` [Example 37-B-227Th, (3R,10S,14S)-3-{[4-(methylamino)naphthalen-2-yl]methyl}-1,4,12-trioxo-1-{(1r,4S)-4-[(2-{4,7,10-tris[(carboxy-kappaO)methyl]-1,4,7,10-tetraazacyclododecan-1-yl-kappa^2N^1,N^4}acetamido)methyl]cyclohexyl}-2,5,11,13-tetraazahexadecane-10,14,16-tricarboxylato(3−)(^227Th)Thorium], in the experiment with C4-2 cells, the “Proliferation assay on cancer cell lines by TTCs Default Pivot #3 IC50 [kBq/mL] C4-2 1000cells 375kBq/nmol (mean)” value amounted to 1.19 kBq/mL. Besides, in the experiment with LNCaP cells, the “Proliferation assay on cancer cell lines by TTCs Default Pivot #3 IC50 [kBq/mL] LnCap 1000cells 375kBq/nmol (mean)” value is on record as 0.13 kBq/mL. Further, the “Proliferation assay on cancer cell lines by TTCs Default Pivot #3 IC50 [kBq/mL] VCap 4000cells 375kBq/nmol (mean)” value in the experiment on VCaP cells stood at 0.87 kBq/mL.
The matching figures for `O=C(O)CC[C@H](NC(=O)N[C@@H](CCCCNC(=O)[C@@H](Cc1ccc2c(c1)CCCO2)NC(=O)[C@H]1CC[C@H](CNC(=O)C[N+]23CCN4CCN5CC[N+]6(CC2)CC(=O)[O][227Th-2]36([O]C(=O)C4)[O]C(=O)C5)CC1)C(=O)O)C(=O)O` [Example 38-B-227Th, {N^6-[3-(3,4-dihydro-2H-1-benzopyran-6-yl)-N-{(1r,4S)-4-[(2-{4,7,10-tris[(carboxy-kappaO)methyl]-1,4,7,10-tetraazacyclododecan-1-yl-kappa^2N^1,N^4}acetamido)methyl]cyclohexane-1-carbonyl}-D-alanyl]-N^2-{[(1S)-1,3-dicarboxypropyl]carbamoyl}-L-lysinato(3−)}(^227Th)Thorium]: 0.91 kBq/mL, 0.10 kBq/mL and 0.44 kBq/mL.
For the compound `O=C(O)CC[C@H](NC(=O)N[C@@H](CCCCNC(=O)[C@@H](Cc1ccc2ccncc2c1)NC(=O)[C@H]1CC[C@H](CNC(=O)C[N+]23CCN4CCN5CC[N+]6(CC2)CC(=O)[O][227Th-2]36([O]C(=O)C4)[O]C(=O)C5)CC1)C(=O)O)C(=O)O` [Example 42-B-227Th, (3R,10S,14S)-3-[(isoquinolin-7-yl)methyl]-1,4,12-trioxo-1-{(1r,4S)-4-[(2-{4,7,10-tris[(carboxy-kappaO)methyl]-1,4,7,10-tetraazacyclododecan-1-yl-kappa^2N^1,N^4}acetamido)methyl]cyclohexyl}-2,5,11,13-tetraazahexadecane-10,14,16-tricarboxylato(3−)(^227Th)Thorium], the “Proliferation assay on cancer cell lines by TTCs Default Pivot #3 IC50 [kBq/mL] C4-2 1000cells 375kBq/nmol (mean)” value in the experiment with C4-2 cells is listed as 0.72 kBq/mL. Moreover, in the experiment on LNCaP cells, the “Proliferation assay on cancer cell lines by TTCs Default Pivot #3 IC50 [kBq/mL] LnCap 1000cells 375kBq/nmol (mean)” value came out at 0.10 kBq/mL. In the experiment on VCaP cells, the “Proliferation assay on cancer cell lines by TTCs Default Pivot #3 IC50 [kBq/mL] VCap 4000cells 375kBq/nmol (mean)” value amounted to 0.70 kBq/mL.
The matching figures for `O=C(O)CC[C@H](NC(=O)N[C@@H](CCCCNC(=O)[C@@H](Cc1ccc2cnccc2c1)NC(=O)[C@H]1CC[C@H](CNC(=O)C[N+]23CCN4CCN5CC[N+]6(CC2)CC(=O)[O][227Th-2]36([O]C(=O)C4)[O]C(=O)C5)CC1)C(=O)O)C(=O)O` [Example 44-B-227Th, (3R,10S,14S)-3-[(isoquinolin-6-yl)methyl]-1,4,12-trioxo-1-{(1r,4S)-4-[(2-{4,7,10-tris[(carboxy-kappaO)methyl]-1,4,7,10-tetraazacyclododecan-1-yl-kappa^2N^1,N^4}acetamido)methyl]cyclohexyl}-2,5,11,13-tetraazahexadecane-10,14,16-tricarboxylato(3−)(^227Th)Thorium]: 0.67 kBq/mL, 0.08 kBq/mL and 0.71 kBq/mL.
The matching figures for `O=C(O)CC[C@H](NC(=O)N[C@@H](CCCCNC(=O)[C@@H](Cc1ccc2cccnc2c1)NC(=O)[C@H]1CC[C@H](CNC(=O)C[N+]23CCN4CCN5CC[N+]6(CC2)CC(=O)[O][227Th-2]36([O]C(=O)C4)[O]C(=O)C5)CC1)C(=O)O)C(=O)O` [Example 45-B-227Th, (3R,10S,14S)-1,4,12-trioxo-3-[(quinolin-7-yl)methyl]-1-{(1r,4S)-4-[(2-{4,7,10-tris[(carboxy-kappaO)methyl]-1,4,7,10-tetraazacyclododecan-1-yl-kappa^2N^1,N^4}acetamido)methyl]cyclohexyl}-2,5,11,13-tetraazahexadecane-10,14,16-tricarboxylato(3−)(^227Th)Thorium]: 1.02 kBq/mL, 0.14 kBq/mL and 0.94 kBq/mL.
For “{N^6-[3-(isoquinolin-3-yl)-N-{(1r,4S)-4-[(2-{4,7,10-tris[(carboxy-kappaO)methyl]-1,4,7,10-tetraazacyclododecan-1-yl-kappa^2N^1,N^4}acetamido)methyl]cyclohexane-1-carbonyl}alanyl]-N^2-{[(1S)-1,3-dicarboxypropyl]carbamoyl}-L-lysinato(3−)}(^227Th)Thorium [Example 36-B-227Th]” the same measures were 3.88 kBq/mL, 0.16 kBq/mL and 0.75 kBq/mL.
